# Patent US20250108038A1 (priority 2023, published 2025)
# “And” between values parts separate entries of the source, which are not always exact repeats. Equal entries are not always repeated. Where two headings read alike, the source gives them in different places.
# Legend:
# [1] = Procedure: Twelve male Wistar Han rats were divided into 4 groups, n=3 per group.
# Dose solutions were prepared freshly on the day of study prior to dosing.
# The animals were weighed immediately prior to dosing and the dose volume was calculated individually based the obtained body weight and the nominal dose volume. […] The test articles were administered either orally by gavage, or intraperitoneally by injection. The nominal dose volume was 10 mL/kg for both compounds and both routes.
# Cage side observation was performed before and after dosing as well as at each scheduled sample collection. The observation included appearance, posture, behavior, morbidity and mortality. Abnormal findings, if any, were recorded in the study notebook and communicated with study director, veterinarian, and Supernus if necessary.
# Approximately 100 μL blood was collected at each scheduled time point from jugular veins. The actual sample collection time was within 1 min. of the nominal time for collections prior to or at 1 hour, and within 5% of the nominal time for collections post 1 hour.
# The blood samples were placed in pre-labeled micro-centrifuge tubes containing K2EDTA as anticoagulant and kept on ice, and then were processed to plasma within 30 minutes of collection by centrifugation at 4° C., 3000 g for 5 minutes, and then stored at −70±10° C. until analysis by LC-MS/MS.
# Plasma concentrations below the LLOQ prior to Tmax were set to zero, and those after Tmax were excluded from PK calculation. The nominal dose and the nominal sample collection time were used for the calculation. The values of plasma concentrations and PK parameters are reported to three significant figures. The average values of each treatment group are presented as mean±SD.
# BCRP = molecular target: T1, BCRP (Homo sapiens, UniProt Q9UNQ0); experiment: Vesicular transport inhibition assay, BCRP (estrone-3-sulfate)
# T1 sequence (Q9UNQ0 1-655): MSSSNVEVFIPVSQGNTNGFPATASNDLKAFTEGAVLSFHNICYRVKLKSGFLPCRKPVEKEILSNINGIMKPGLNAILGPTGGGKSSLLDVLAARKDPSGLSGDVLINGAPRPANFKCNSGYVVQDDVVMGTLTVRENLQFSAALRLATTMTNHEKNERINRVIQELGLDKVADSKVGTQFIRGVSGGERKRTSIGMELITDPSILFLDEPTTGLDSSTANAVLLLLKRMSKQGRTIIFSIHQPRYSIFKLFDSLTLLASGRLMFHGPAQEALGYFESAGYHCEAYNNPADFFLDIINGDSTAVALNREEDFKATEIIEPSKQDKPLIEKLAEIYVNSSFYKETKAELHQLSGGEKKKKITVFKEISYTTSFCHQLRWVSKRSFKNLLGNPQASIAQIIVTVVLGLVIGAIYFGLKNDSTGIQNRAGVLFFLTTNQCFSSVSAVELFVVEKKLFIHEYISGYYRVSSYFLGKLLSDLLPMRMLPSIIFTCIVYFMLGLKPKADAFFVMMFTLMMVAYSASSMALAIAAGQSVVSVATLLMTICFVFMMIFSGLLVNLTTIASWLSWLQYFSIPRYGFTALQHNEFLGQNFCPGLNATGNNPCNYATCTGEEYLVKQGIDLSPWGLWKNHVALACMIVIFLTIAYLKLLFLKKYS
# Procedure: Vesicular transport assays were performed with inside-out membrane vesicles prepared from cells overexpressing human ABC (efflux) transporters. The transporters were expressed by SOLVO Biotechnology in mammalian (HEK293) cells. The mammalian cells were stably transfected with the ABC transporter of interest. The assays were conducted according to the actual SOLVO VT assay protocols (PR-ASY-VT-General Protocol for Vesicular Transport Inhibition Assays).
# The membrane vesicle suspension was mixed with the ice-cold transport buffer, then the probe substrate solution was added. […] (for BCRP and MDR1). […] Reactions were quenched by the addition of 200 μL of ice-cold washing buffer and immediate filtration via glass fiber filters mounted to a 96-well plate (filter plate). The filters were washed (5×200 μL of ice-cold washing buffer), dried and the amount of substrate inside the filtered vesicles was determined by liquid scintillation counting.
# Incubation with AMP provided background activity values for all data points.
# [2] = single IP Compound I-19 4.061 mg/kg, male Wistar Han rats, individual animals
# [3] = single IP Compound I-19 4.061 mg/kg, male Wistar Han rats, mean
# [4] = single PO Compound I-19 4.061 mg/kg, male Wistar Han rats, individual animals
# [5] = single PO Compound I-19 4.061 mg/kg, male Wistar Han rats, mean
# [6] = 0.14 μM nominal, follow-up assay
# [7] = 1.24 μM nominal, follow-up assay
# [8] = 11.11 μM nominal, follow-up assay
# [9] = 33.33 μM nominal, follow-up assay
# [10] = 100.00 μM nominal, follow-up assay
structure (smiles),measurement,setting,value
Clc1ccc(C2(OCC3OCCO3)c3ccccc3C3=NCCN32)cc1 (stereo not shown) [Compound I-19],plasma concentration of Compound I-19,"[1]; 0.500 h, single IP Compound I-19 4.061 mg/kg, male Wistar Han rats, individual animals",150 ng/mL and 193 ng/mL and 136 ng/mL
same,plasma concentration of Compound I-19,"[1]; 0.500 h, single IP Compound I-19 4.061 mg/kg, male Wistar Han rats, mean",160 ng/mL
same,plasma concentration of Compound I-19,"[1]; 2.00 h, single IP Compound I-19 4.061 mg/kg, male Wistar Han rats, individual animals",126 ng/mL and 144 ng/mL and 188 ng/mL
same,plasma concentration of Compound I-19,"[1]; 2.00 h, single IP Compound I-19 4.061 mg/kg, male Wistar Han rats, mean",153 ng/mL
same,plasma concentration of Compound I-19,"[1]; 2.00 h, single PO Compound I-19 4.061 mg/kg, male Wistar Han rats, individual animals",BQL
same,plasma concentration of Compound I-19,"[1]; 4.00 h, single IP Compound I-19 4.061 mg/kg, male Wistar Han rats, individual animals",73.3 ng/mL and 69.9 ng/mL and 91.6 ng/mL
same,plasma concentration of Compound I-19,"[1]; 4.00 h, single IP Compound I-19 4.061 mg/kg, male Wistar Han rats, mean",78.3 ng/mL
same,plasma concentration of Compound I-19,"[1]; 4.00 h, single PO Compound I-19 4.061 mg/kg, male Wistar Han rats, individual animals",BQL
same,plasma concentration of Compound I-19,"[1]; 8.00 h, single IP Compound I-19 4.061 mg/kg, male Wistar Han rats, individual animals",6.11 ng/mL and 10.1 ng/mL and 10.7 ng/mL
same,plasma concentration of Compound I-19,"[1]; 8.00 h, single IP Compound I-19 4.061 mg/kg, male Wistar Han rats, mean",8.97 ng/mL
same,plasma concentration of Compound I-19,"[1]; 8.00 h, single PO Compound I-19 4.061 mg/kg, male Wistar Han rats, individual animals",BQL
same,plasma concentration of Compound I-19,"[1]; 24.0 h, single IP Compound I-19 4.061 mg/kg, male Wistar Han rats, individual animals",BQL
same,plasma concentration of Compound I-19,"[1]; 24.0 h, single PO Compound I-19 4.061 mg/kg, male Wistar Han rats, individual animals",BQL
same,plasma concentration of Compound I-19,"[1]; […] h, single IP Compound I-19 4.061 mg/kg, male Wistar Han rats, mean",168 ng/mL
same,Clinical observation (tolerability),"[1]; male Wistar Han rats, PO and IP, administered dosages",well tolerated
same,T1/2 of the administered compound,"[1]; rat, in vivo, ip",1.43 ± 0.107 h
same,AUC0-inf of Compound I-19,[1]; [2],584 ng·h/mL and 660 ng·h/mL and 771 ng·h/mL
same,AUC0-last of Compound I-19,[1]; [2],572 ng·h/mL and 637 ng·h/mL and 749 ng·h/mL
same,Cmax of Compound I-19,[1]; [2],158 ng/mL and 193 ng/mL and 192 ng/mL
same,MRT0-inf of Compound I-19,[1]; [2],2.63 h and 2.73 h and 2.80 h
same,MRT0-last of Compound I-19,[1]; [2],2.48 h and 2.47 h and 2.59 h
same,T1/2 of Compound I-19,[1]; [2],1.33 h and 1.54 h and 1.43 h
same,Tlast of Compound I-19,[1]; [2],8.00 h
same,Tmax of Compound I-19,[1]; [2],0.500 h
same,AUC0-inf of Compound I-19,[1]; [3],672 ng·h/mL
same,AUC0-last of Compound I-19,[1]; [3],653 ng·h/mL
same,Cmax of Compound I-19,[1]; [3],181 ng/mL
same,MRT0-inf of Compound I-19,[1]; [3],2.72 h
same,MRT0-last of Compound I-19,[1]; [3],2.51 h
same,T1/2 of Compound I-19,[1]; [3],1.43 h
same,Tlast of Compound I-19,[1]; [3],8.00 h
same,Tmax of Compound I-19,[1]; [3],0.583 h
same,AUC0-last of Compound I-19,[1]; [4],0.510 ng·h/mL and 0.285 ng·h/mL
same,Cmax of Compound I-19,[1]; [4],1.02 ng/mL and 1.14 ng/mL
same,MRT0-last of Compound I-19,[1]; [4],1.00 h and 0.500 h
same,Tlast of Compound I-19,[1]; [4],1.00 h and 0.500 h
same,Tmax of Compound I-19,[1]; [4],0.500 h
same,AUC0-last of Compound I-19,[1]; [5],0.398 ng·h/mL
same,Cmax of Compound I-19,[1]; [5],1.08 ng/mL
same,MRT0-last of Compound I-19,[1]; [5],0.750 h
same,Tlast of Compound I-19,[1]; [5],0.750 h
same,ATP-dependent transport,BCRP; [6],"13,445.33 ± 1,138.41 cpm"
same,Relative ATP-dependent transport,BCRP; [6],98.49 ± 11.79 % of control
same,Relative inhibition,BCRP; [6],2%
same,ATP-dependent transport,BCRP; [7],"12,617.00 ± 500.27 cpm"
same,Relative ATP-dependent transport,BCRP; [7],92.42 ± 8.64 % of control
same,Relative inhibition,BCRP; [7],8%
same,ATP-dependent transport,BCRP; 10.00 μM nominal,"15,363.00 ± 602.94^ cpm"
same,Relative ATP-dependent transport,BCRP; 10.00 μM nominal,94.72 ± 7.53 % of control
same,Relative inhibition,BCRP; 10.00 μM nominal,5%
same,ATP-dependent transport,BCRP; [8],"12,797.67 ± 194.88 cpm"
same,Relative ATP-dependent transport,BCRP; [8],93.75 ± 8.06 % of control
same,Relative inhibition,BCRP; [8],6%
same,ATP-dependent transport,BCRP; [9],"10,739.00 ± 289.94 cpm"
same,Relative ATP-dependent transport,BCRP; [9],78.67 ± 6.99 % of control
same,Relative inhibition,BCRP; [9],21%
same,ATP-dependent transport,BCRP; 100.00 μM nominal,"7,418.33 ± 222.69 cpm"
same,Relative ATP-dependent transport,BCRP; 100.00 μM nominal,45.74 ± 3.45 % of control
same,Relative inhibition,BCRP; 100.00 μM nominal,54%
same,ATP-dependent transport,BCRP; [10],"7,718.00 ± 183.19 cpm"
same,Relative ATP-dependent transport,BCRP; [10],56.54 ± 4.97 % of control
same,Relative inhibition,BCRP; [10],43%
same,Maximum % inhibition,"BCRP; BCRP, inside-out membrane vesicles, E3S (1 μM), NIO: No inhibition observed",43%
same,maximum inhibition of BCRP-mediated E3S accumulation,"BCRP; follow-up assay, seven concentrations",43%
